Measurements taken from patent publication US11065259B2, “Methods of treating pruritus” (Duke University, priority 2014, dated 2021).

System: pruritus (itch)
Assay: Topical administration to human subjects with psoriasis-associated pruritus
Format: in vivo
Details: person
Experimental: The efficacy of Manganese ortho tetrakis(N-n-butoxyethylpyridinium-2-yl)porphyrin (MnTnBuOE-2-PyP^5+) in treating pruritus (itch) when topically applied was evaluated in a person with large areas of moderately severe plaque-forming psoriasis on upper and lower portions of both legs, with each involved area being approximately 10-20 cm in diameter. These lesions were markedly excoriated with intense, persistent symptoms of pruritus. MnTnBuOE-2-PyP^5+ was formulated in Lipoderm at 0.01% and 0.1% concentrations producing a light brown cream which was applied b.i.d. to lesions on one extremity. Symptoms of pruritus were relieved within 10 to 15 minutes after topical application of MnTnBuOE-2-PyP^5+ and remained under control for several hours.
A second subject with psoriatic involvement of the scalp of moderate severity and associated with marked pruritus and scratching was topically treated with MnTnBuOE-2-PyP^5+ 0.1% in Lipoderm twice daily for 3 weeks.

[1] = plaque-forming psoriasis on both legs, 0.01% and 0.1% in Lipoderm, topical b.i.d.
[2] = psoriatic involvement of the scalp, 0.1% in Lipoderm, topical twice daily for 3 weeks

“Manganese ortho tetrakis(N-n-butoxyethylpyridinium-2-yl)porphyrin [MnTnBuOE-2-PyP^5+]” was tested, and the “time after topical application until symptoms of pruritus were relieved” value [1] was 10 to 15 min, the “time symptoms of pruritus remained under control” value [1] was “several hours” and the “comparison of efficacy of 0.01% and 0.1% concentrations” value (plaque-forming psoriasis on both legs, lesions treated with 0.01% vs 0.1% in Lipoderm) was “Equivalent efficacy”. The “effect of repeat application on pruritus” value (plaque-forming psoriasis on both legs, repeat topical application in Lipoderm) was “consistently reduced pruritus without tachyphylaxis”, the “resolution of pruritic symptoms” value [2] was “completely effective in resolving pruritic symptoms” and the “time after application until symptoms of pruritus were relieved” value [2] was “within minutes”. The “time symptoms of pruritus remained under control” value [2] was “up to 12 hours”.
